Data reported in ChEMBL document CHEMBL1909046, “DrugMatrix in vitro pharmacology data”.

What was measured:
[1] = molecular target: Sigma non-opioid intracellular receptor 1 (Homo sapiens, UniProt Q99720); test: DRUGMATRIX: Sigma1 radioligand binding (ligand: [3H] Haloperidol); assay type: cell membranes, Jurkat, Membrane; details: Not Active = under 50% inhibition at 10 µM; for Ki: read-out: Ki
[2] = DRUGMATRIX: Leukotriene, BLT (LTB4) radioligand binding (ligand: [3H]LTB4); assay type: cell membranes, Membrane; details: u-937; Not Active = under 50% inhibition at 10 µM
Cathepsin G = molecular target: T1, Cathepsin G (Homo sapiens, UniProt P08311); assay type: tissue-based; details: neutrophil;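 also: inhibition of Cathepsin G enzyme activity, tested on an AMC-conjugated peptide substrate; in other assays of this panel Not Active means under 50% inhibition at 10 µM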
T1 sequence (P08311 whole entry): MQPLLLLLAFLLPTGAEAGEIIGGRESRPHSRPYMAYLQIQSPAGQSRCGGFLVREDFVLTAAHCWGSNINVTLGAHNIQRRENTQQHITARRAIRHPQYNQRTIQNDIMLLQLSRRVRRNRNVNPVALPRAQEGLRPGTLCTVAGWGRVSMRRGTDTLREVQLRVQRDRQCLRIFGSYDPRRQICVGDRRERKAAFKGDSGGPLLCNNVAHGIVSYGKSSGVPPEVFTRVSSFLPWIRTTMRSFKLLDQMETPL

[3] = molecular target: T2, Alpha-2A adrenergic receptor (Homo sapiens, UniProt P08913); assay type: cell membranes, Sf9, Membrane; details: sf9; also: in other assays of this panel Not Active means under 50% inhibition at 10 µM
T2 sequence (P08913 whole entry): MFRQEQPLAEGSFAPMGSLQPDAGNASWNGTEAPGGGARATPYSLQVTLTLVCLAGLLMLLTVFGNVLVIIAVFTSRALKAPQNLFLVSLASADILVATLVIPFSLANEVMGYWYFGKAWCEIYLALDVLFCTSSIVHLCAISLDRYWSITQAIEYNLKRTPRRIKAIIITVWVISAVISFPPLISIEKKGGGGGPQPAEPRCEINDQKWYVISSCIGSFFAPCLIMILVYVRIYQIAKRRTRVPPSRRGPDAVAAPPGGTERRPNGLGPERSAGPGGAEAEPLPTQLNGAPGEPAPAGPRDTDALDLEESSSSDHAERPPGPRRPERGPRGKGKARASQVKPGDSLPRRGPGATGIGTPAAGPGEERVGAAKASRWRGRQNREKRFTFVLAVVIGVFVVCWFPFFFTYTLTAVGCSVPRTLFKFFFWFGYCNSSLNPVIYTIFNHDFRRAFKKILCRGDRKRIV

[4] = molecular target: T3, Alpha-1B adrenergic receptor (Rattus norvegicus, UniProt P15823); test: DRUGMATRIX: Alpha-1B adrenergic receptor radioligand binding (ligand: prazosin); assay type: cell membranes, Wistar, Liver, Membrane; details: Not Active = under 50% inhibition at 10 µM
T3 sequence (P15823 whole entry): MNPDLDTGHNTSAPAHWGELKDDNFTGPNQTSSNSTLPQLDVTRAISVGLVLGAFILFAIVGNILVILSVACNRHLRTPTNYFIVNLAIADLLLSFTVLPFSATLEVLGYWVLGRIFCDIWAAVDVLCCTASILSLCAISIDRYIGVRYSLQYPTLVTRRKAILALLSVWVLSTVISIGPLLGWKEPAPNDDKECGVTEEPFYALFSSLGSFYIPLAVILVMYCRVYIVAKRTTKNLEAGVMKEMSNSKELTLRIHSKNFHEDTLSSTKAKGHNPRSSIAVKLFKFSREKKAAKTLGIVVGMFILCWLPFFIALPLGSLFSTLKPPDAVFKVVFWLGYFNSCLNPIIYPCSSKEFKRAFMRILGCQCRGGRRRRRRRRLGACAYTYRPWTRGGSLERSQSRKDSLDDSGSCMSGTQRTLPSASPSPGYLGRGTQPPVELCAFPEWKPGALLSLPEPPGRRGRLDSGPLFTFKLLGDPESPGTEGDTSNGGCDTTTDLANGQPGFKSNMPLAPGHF

[5] = DRUGMATRIX: Sodium/nucleoside co-transporter radioligand binding (ligand: nitrobenzylthioinosine); assay type: cell membranes, Cavia porcellus, Dunkin-Hartley, Cerebral cortex, Membrane; details: Not Active = under 50% inhibition at 10 µM

Sigma non-opioid intracellular receptor 1, sequence (Q99720 whole entry): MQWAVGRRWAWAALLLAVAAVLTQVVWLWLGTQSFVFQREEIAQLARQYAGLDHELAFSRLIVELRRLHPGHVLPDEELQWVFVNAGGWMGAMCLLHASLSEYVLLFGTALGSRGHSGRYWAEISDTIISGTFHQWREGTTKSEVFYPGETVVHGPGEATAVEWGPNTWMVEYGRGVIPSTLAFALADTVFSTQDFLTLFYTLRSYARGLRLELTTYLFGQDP

Row | Compound | IC50 ([1]; jurkat) | IC50 [2] | Ki [2] | IC50 (Cathepsin G) | IC50 [3] | IC50 [4] | IC50 [5] | Ki [5] | IC50 ([1]; read-out: IC50) | Ki [1]
1 | C#CC1(O)CC[C@H]2[C@@H]3CCC4=CC(=O)CC[C@@H]4[C@H]3CC[C@@]21CC (stereo partly specified) [NORGESTREL] | Not Active | Not Active | Not Active | Not Active | Not Active | Not Active | Not Active | Not Active | – | –
2 | COC(=O)Nc1nc2ccc([S+]([O-])c3ccccc3)cc2[nH]1 (stereo unspecified) [OXFENDAZOLE] | Not Active | Not Active | Not Active | Not Active | Not Active | Not Active | Not Active | Not Active | – | –
3 | CC(=O)O[C@H]1C(=O)[C@@]2(C)[C@H]([C@H](OC(=O)c3ccccc3)[C@]3(O)C[C@H](OC(=O)[C@H](O)[C@@H](NC(=O)c4ccccc4)c4ccccc4)C(C)=C1C3(C)C)[C@]1(OC(C)=O)CO[C@@H]1C[C@@H]2O [PACLITAXEL] | Not Active | Not Active | Not Active | Not Active | Not Active | Not Active | Not Active | Not Active | – | –
4 | C[n+]1ccc(-c2cc[n+](C)cc2)cc1.[Cl-].[Cl-] [PARAQUAT DICHLORIDE] | Not Active | Not Active | Not Active | Not Active | Not Active | Not Active | Not Active | Not Active | – | –
5 | CC(C)NCC(O)COc1cccc2[nH]ccc12 (stereo unspecified) [PINDOLOL] | Not Active | Not Active | Not Active | Not Active | Not Active | Not Active | Not Active | Not Active | – | –
6 | CCn1cc(C(=O)O)c(=O)c2cnc(N3CCCC3)nc21 [PIROMIDIC ACID] | Not Active | Not Active | Not Active | Not Active | Not Active | Not Active | Not Active | Not Active | – | –
7 | C[n+]1ccccc1/C=N/O.[Cl-] [PRALIDOXIME CHLORIDE] | Not Active | Not Active | Not Active | Not Active | Not Active | Not Active | Not Active | Not Active | – | –
8 | C[C@]12C=CC(=O)C=C1CC[C@@H]1[C@@H]2[C@@H](O)C[C@@]2(C)[C@H]1CC[C@]2(O)C(=O)CO [PREDNISOLONE] | Not Active | Not Active | Not Active | Not Active | Not Active | Not Active | Not Active | Not Active | – | –
9 | CC(=O)[C@H]1[C@H](C#N)C[C@H]2[C@@H]3CC=C4C[C@@H](O)CC[C@]4(C)[C@H]3CC[C@@]21C [PREGNENOLONE CARBONITRILE] | – | Not Active | Not Active | Not Active | Not Active | Not Active | Not Active | Not Active | 21.3 µM | 8.95 µM
10 | CCCN(CCC)S(=O)(=O)c1ccc(C(=O)O)cc1 [PROBENECID] | Not Active | Not Active | Not Active | Not Active | Not Active | Not Active | Not Active | Not Active | – | –
11 | CCCOc1ccc(C(=O)OCCN(CC)CC)cc1N [PROPARACAINE] | – | Not Active | Not Active | Not Active | Not Active | Not Active | Not Active | Not Active | 0.238 µM | 0.1 µM
12 | CC(C)c1cccc(C(C)C)c1O [PROPOFOL] | Not Active | Not Active | Not Active | Not Active | Not Active | Not Active | Not Active | Not Active | – | –
13 | C[C@@H]1O[C@@H](O[C@@H]2C=C3CC[C@@H]4[C@H](CC[C@]5(C)[C@@H](c6ccc(=O)oc6)CC[C@]45O)[C@@]3(C)CC2)[C@H](O)[C@H](O)[C@H]1O [PROSCILLARIDIN] | Not Active | Not Active | Not Active | Not Active | Not Active | Not Active | Not Active | Not Active | – | –
